Experimental data published in ChEMBL document CHEMBL1909046, “DrugMatrix in vitro pharmacology data”.

How the values were obtained:
[1] = target: Sigma non-opioid intracellular receptor 1 (Homo sapiens, UniProt Q99720); test: DRUGMATRIX: Sigma1 radioligand binding (ligand: [3H] Haloperidol); type: cell membranes, Jurkat, Membrane; details: jurkat; Not Active = under 50% inhibition at 10 µM
[2] = DRUGMATRIX: Glutamate, NMDA, Phencyclidine radioligand binding (ligand: [3H] TCP); type: cell membranes, Rattus norvegicus, Wistar, Cerebral cortex, Membrane; details: Not Active = under 50% inhibition at 10 µM
Cytochrome P450 2C19 = Cytochrome P450 2C19 (Homo sapiens, UniProt P33261); details: bti-tn-5b1-4; also: in other assays of this panel Not Active means under 50% inhibition at 10 µM
Calcitonin receptor = target: T1, Calcitonin receptor (Homo sapiens, UniProt P30988); type: cell membranes, Membrane; details: t47d; also: in other assays of this panel Not Active means under 50% inhibition at 10 µM
T1 sequence (P30988 whole entry): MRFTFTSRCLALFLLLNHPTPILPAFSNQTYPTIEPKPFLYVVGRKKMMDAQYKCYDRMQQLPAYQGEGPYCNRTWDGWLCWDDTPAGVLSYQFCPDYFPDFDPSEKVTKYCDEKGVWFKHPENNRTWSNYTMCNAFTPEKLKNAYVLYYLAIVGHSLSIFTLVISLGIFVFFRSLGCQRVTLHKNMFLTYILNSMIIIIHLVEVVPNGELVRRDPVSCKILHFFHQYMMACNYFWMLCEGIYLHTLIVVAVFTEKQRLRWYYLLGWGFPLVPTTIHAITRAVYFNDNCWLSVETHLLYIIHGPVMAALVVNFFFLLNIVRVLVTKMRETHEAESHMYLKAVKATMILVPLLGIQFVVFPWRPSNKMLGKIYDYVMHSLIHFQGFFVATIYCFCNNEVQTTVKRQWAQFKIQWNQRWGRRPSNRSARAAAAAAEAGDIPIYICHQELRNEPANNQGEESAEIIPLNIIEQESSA

[3] = target: T2, Amine oxidase [flavin-containing] A (Homo sapiens, UniProt P21397); test: DRUGMATRIX: Monoamine Oxidase MAO-A enzyme inhibition (substrate: Kynuramine); design: species or system BTI-TN-5B1-4; details: bti-tn-5b1-4; Not Active = under 50% inhibition at 10 µM
T2 sequence (P21397 whole entry): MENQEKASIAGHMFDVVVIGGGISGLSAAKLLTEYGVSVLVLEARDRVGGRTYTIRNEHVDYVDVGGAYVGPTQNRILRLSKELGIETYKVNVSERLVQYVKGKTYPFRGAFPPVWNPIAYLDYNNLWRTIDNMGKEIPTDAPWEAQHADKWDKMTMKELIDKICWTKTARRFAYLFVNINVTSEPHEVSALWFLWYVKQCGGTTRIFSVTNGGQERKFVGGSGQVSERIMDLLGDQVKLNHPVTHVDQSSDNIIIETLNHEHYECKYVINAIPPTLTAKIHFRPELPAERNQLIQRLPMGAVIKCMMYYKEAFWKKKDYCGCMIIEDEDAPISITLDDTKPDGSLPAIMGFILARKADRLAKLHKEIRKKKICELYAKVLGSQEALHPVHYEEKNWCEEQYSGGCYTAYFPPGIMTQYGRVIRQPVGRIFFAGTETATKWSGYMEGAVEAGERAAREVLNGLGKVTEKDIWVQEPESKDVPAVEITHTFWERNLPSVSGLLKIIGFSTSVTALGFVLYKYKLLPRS

Acetylcholinesterase = Acetylcholinesterase (Homo sapiens, UniProt P22303); test: DRUGMATRIX: Acetylcholinesterase enzyme inhibition (substrate: acetylthiocholine); type: cell-based, HEK293; details: hek293; Not Active = under 50% inhibition at 10 µM
[4] = DRUGMATRIX: Platelet-Derived Growth Factor (PDGF) radioligand binding (ligand: [125I] PDGF); type: cell-based; details: nih3t3; Not Active = under 50% inhibition at 10 µM
[5] = target: Sodium-dependent dopamine transporter (Homo sapiens, UniProt Q01959); test: DRUGMATRIX: Dopamine Transporter radioligand binding (ligand: [125I] RTI-55); type: cell membranes, CHO-K1, Membrane; details: Not Active = under 50% inhibition at 10 µM; for Ki: read-out: Ki
Nitric oxide synthase 1 = Nitric oxide synthase 1 (Rattus norvegicus, UniProt P29476); type: tissue-based, Cerebellum; also: in other assays of this panel Not Active means under 50% inhibition at 10 µM
[6] = target: Tyrosine-protein kinase Lck (Homo sapiens, UniProt P06239); test: DRUGMATRIX: Protein Tyrosine Kinase, LCK enzyme inhibition (substrate: Poly(Glu:Tyr)); type: cell-based, Insect cells; details: insect cells; Not Active = under 50% inhibition at 10 µM
Chain of Tyrosine-protein kinase Lck (P06239 whole entry): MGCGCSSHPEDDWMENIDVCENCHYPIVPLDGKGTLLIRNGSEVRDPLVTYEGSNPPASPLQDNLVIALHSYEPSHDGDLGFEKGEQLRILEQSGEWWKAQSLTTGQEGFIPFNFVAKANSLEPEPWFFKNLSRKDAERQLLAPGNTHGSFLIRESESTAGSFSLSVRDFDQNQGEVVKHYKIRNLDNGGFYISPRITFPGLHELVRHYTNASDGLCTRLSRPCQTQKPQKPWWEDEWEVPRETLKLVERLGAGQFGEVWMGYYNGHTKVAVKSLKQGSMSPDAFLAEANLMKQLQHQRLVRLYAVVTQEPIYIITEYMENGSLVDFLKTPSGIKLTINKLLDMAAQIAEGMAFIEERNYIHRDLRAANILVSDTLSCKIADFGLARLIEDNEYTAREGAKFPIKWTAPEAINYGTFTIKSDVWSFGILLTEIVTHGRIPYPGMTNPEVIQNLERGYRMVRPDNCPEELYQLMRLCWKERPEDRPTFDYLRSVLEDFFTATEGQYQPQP

Chain of Sigma non-opioid intracellular receptor 1 (Q99720 whole entry): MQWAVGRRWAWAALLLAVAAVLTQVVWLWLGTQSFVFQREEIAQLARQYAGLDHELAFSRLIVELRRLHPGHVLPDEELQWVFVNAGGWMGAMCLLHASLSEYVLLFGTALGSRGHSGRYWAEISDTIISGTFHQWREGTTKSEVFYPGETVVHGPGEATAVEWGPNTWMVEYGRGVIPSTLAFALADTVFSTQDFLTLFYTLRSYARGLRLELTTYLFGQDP
Chain of Acetylcholinesterase (P22303 whole entry): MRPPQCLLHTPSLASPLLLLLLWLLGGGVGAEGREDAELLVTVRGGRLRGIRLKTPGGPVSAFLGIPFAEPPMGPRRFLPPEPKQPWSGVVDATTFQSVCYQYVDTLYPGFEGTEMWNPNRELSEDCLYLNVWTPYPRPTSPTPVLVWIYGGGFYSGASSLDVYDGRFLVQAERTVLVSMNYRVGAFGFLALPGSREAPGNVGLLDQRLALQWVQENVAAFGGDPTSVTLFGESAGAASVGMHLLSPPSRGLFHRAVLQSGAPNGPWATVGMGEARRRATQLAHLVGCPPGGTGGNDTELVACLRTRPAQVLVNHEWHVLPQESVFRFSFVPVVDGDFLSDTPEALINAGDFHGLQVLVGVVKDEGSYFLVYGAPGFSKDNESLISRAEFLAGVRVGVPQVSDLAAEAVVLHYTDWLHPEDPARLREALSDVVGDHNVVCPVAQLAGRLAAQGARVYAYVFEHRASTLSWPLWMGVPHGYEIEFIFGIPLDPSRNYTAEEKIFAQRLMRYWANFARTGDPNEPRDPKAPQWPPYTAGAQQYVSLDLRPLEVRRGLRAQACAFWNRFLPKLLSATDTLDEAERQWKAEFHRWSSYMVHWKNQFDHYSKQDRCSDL
Chain of Nitric oxide synthase 1 (P29476 whole entry): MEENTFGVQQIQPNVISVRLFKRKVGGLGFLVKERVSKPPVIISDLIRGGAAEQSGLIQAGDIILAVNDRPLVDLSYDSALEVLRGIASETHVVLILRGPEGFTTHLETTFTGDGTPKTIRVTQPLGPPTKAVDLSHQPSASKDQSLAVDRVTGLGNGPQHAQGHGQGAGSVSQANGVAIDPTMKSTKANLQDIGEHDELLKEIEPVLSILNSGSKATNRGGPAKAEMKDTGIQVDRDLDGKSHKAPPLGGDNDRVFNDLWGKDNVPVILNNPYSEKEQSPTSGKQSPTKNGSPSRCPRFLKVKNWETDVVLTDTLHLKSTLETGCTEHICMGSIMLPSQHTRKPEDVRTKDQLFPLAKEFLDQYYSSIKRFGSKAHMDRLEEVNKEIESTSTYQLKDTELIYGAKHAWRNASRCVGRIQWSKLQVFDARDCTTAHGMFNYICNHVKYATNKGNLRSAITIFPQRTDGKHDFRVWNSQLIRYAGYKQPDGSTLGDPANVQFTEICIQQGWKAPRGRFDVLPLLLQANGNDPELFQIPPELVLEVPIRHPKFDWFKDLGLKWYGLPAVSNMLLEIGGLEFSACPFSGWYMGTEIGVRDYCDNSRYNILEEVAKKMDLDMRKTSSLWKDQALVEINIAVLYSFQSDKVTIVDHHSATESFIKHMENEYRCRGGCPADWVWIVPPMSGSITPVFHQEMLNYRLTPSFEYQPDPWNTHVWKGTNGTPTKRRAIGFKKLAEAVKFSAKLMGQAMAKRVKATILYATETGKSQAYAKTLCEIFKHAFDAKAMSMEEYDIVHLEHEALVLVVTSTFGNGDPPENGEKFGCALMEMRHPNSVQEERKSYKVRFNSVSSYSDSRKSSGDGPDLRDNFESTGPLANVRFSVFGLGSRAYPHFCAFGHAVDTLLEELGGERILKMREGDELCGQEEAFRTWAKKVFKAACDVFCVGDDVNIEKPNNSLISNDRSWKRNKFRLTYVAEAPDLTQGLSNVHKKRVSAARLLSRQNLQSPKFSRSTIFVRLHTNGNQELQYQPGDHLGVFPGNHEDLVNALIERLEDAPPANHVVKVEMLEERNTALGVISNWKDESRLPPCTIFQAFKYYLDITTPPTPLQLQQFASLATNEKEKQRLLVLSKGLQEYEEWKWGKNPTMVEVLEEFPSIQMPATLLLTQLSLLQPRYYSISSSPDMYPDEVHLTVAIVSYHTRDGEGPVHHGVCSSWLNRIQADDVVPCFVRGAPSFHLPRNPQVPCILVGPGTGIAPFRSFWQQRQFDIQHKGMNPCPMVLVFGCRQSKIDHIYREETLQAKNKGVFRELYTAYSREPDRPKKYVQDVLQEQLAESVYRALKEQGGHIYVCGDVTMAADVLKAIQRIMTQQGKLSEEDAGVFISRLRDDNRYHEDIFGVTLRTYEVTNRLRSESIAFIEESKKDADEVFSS
Chain of Cytochrome P450 2C19 (P33261 whole entry): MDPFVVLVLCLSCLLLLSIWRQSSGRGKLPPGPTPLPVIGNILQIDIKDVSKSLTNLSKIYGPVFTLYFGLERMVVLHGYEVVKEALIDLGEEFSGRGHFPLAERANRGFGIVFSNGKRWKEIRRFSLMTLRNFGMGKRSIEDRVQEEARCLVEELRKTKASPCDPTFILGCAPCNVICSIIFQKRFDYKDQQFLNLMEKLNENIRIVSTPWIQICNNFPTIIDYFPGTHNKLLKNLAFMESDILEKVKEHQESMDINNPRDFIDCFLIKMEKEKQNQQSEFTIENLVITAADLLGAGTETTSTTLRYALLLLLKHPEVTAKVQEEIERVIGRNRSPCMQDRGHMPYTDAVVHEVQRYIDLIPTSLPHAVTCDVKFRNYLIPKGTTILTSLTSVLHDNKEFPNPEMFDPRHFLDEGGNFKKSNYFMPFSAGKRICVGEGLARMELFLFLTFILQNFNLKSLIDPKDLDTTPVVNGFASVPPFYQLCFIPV
Chain of Sodium-dependent dopamine transporter (Q01959 whole entry): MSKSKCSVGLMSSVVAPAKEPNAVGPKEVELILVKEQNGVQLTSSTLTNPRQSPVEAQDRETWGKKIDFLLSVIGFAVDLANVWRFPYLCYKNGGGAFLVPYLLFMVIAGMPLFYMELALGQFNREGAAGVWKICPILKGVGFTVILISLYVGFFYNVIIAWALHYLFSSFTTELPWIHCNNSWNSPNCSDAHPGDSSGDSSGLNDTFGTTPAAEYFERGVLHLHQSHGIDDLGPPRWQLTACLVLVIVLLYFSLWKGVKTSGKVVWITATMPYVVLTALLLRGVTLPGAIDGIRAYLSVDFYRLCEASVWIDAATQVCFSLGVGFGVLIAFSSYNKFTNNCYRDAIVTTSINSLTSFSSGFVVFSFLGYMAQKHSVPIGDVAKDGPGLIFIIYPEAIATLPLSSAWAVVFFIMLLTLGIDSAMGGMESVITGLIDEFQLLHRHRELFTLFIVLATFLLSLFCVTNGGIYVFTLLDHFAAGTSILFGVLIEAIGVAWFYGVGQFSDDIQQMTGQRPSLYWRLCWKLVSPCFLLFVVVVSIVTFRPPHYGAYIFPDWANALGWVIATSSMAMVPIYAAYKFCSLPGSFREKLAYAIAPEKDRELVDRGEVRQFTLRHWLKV

| Compound | IC50 [1] | IC50 [2] | Ki [2] | IC50 (Cytochrome P450 2C19) | Ki (Cytochrome P450 2C19) | IC50 (Calcitonin receptor) | IC50 [3] | IC50 (Acetylcholinesterase) | IC50 [4] | Ki [4] | IC50 ([5]; cho-k1) | IC50 (Nitric oxide synthase 1) | IC50 [6] | IC50 ([5]; read-out: IC50) [µM] | Ki [5] [µM] |
| --- | --- | --- | --- | --- | --- | --- | --- | --- | --- | --- | --- | --- | --- | --- | --- |
| CC1=C(CC(=O)O)c2cc(F)ccc2/C1=C\c1ccc([S+](C)[O-])cc1 (centres undefined) | Not Active | Not Active | Not Active | Not Active | Not Active | Not Active | Not Active | Not Active | Not Active | Not Active | Not Active | Not Active | Not Active | – | – |
| N[C@H](CSC(=S)NCc1ccccc1)C(=O)O | Not Active | Not Active | Not Active | Not Active | Not Active | Not Active | Not Active | Not Active | Not Active | Not Active | Not Active | Not Active | Not Active | – | – |
| CC(=O)N[C@@H]1[C@H](Oc2c3cc4cc2Oc2ccc(cc2Cl)[C@@H](O[C@@H]2O[C@@H](CO)[C@@H](O)[C@H](O)[C@@H]2NC(C)=O)[C@@H]2NC(=O)[C@H](NC(=O)[C@@H]4NC(=O)[C@H]4NC(=O)[C@@H](Cc5ccc(c(Cl)c5)O3)NC(=O)[C@H](N)c3ccc(O)c(c3)Oc3cc(O)cc4c3)c3ccc(O)c(c3)-c3c(O[C@H]4O[C@H](CO)[C@@H](O)[C@@H](O)[C@@H]4O)cc(O)cc3[C@@H](C(=O)O)NC2=O)O[C@@H](CO)[C@@H](O)[C@@H]1O | Not Active | Not Active | Not Active | Not Active | Not Active | Not Active | Not Active | Not Active | Not Active | Not Active | Not Active | Not Active | Not Active | – | – |
| CN1CCC(=C2c3ccccc3C=Cc3ccccc32)CC1 [CYPROHEPTADINE] | Not Active | – | – | Not Active | Not Active | Not Active | Not Active | Not Active | – | – | Not Active | Not Active | Not Active | – | – |
| CC(=O)N1CCN(c2ccc(OCC3COC(Cn4ccnc4)(c4ccc(Cl)cc4Cl)O3)cc2)CC1 (centres undefined) [KETOCONAZOLE] | Not Active | Not Active | Not Active | Not Active | Not Active | Not Active | Not Active | Not Active | Not Active | Not Active | – | Not Active | Not Active | 23.5 | 18.7 |
| COCCCOc1ccnc(C[S+]([O-])c2nc3ccccc3[nH]2)c1C (centres undefined) [RABEPRAZOLE] | Not Active | Not Active | Not Active | Not Active | Not Active | Not Active | Not Active | Not Active | Not Active | Not Active | Not Active | Not Active | Not Active | – | – |
| CNC(=C[N+](=O)[O-])NCCSCc1ccc(CN(C)C)o1 [RANITIDINE] | Not Active | Not Active | Not Active | Not Active | Not Active | Not Active | Not Active | Not Active | Not Active | Not Active | Not Active | Not Active | Not Active | – | – |
| CO[C@H]1/C=C/O[C@@]2(C)Oc3c(C)c(O)c4c(c3C2=O)C2=NC3(CCN(CC(C)C)CC3)NC2=C(NC(=O)/C(C)=C\C=C\[C@H](C)[C@H](O)[C@@H](C)[C@@H](O)[C@@H](C)[C@H](OC(C)=O)[C@@H]1C)C4=O [RIFABUTIN] | Not Active | Not Active | Not Active | Not Active | Not Active | Not Active | Not Active | Not Active | Not Active | Not Active | Not Active | Not Active | Not Active | – | – |
| CC(C)CC(N(C)C)C1(c2ccc(Cl)cc2)CCC1 (centres undefined) [SIBUTRAMINE] | Not Active | Not Active | Not Active | Not Active | Not Active | Not Active | Not Active | Not Active | Not Active | Not Active | – | Not Active | Not Active | 0.632 | 0.502 |
| [H]/N=C(/N)N[C@H]1[C@H](O)[C@@H](O)[C@H](O[C@@H]2O[C@@H](C)[C@](O)(C=O)[C@H]2O[C@@H]2O[C@@H](CO)[C@H](O)[C@@H](O)[C@@H]2NC)[C@@H](N/C(N)=N\[H])[C@@H]1O [STREPTOMYCIN] | Not Active | Not Active | Not Active | Not Active | Not Active | Not Active | Not Active | Not Active | Not Active | Not Active | Not Active | Not Active | Not Active | – | – |
| COc1cc(NS(=O)(=O)c2ccc(N)cc2)nc(OC)n1 [SULFADIMETHOXINE] | Not Active | Not Active | Not Active | Not Active | Not Active | Not Active | Not Active | Not Active | Not Active | Not Active | Not Active | Not Active | Not Active | – | – |
| Cc1cc(C)nc(NS(=O)(=O)c2ccc(N)cc2)n1 [SULFAMETHAZINE] | Not Active | Not Active | Not Active | Not Active | Not Active | Not Active | Not Active | Not Active | Not Active | Not Active | Not Active | Not Active | Not Active | – | – |
| C[C@]1(Cn2ccnn2)[C@H](C(=O)O)N2C(=O)C[C@H]2S1(=O)=O [TAZOBACTAM] | Not Active | Not Active | Not Active | Not Active | Not Active | Not Active | Not Active | Not Active | Not Active | Not Active | Not Active | Not Active | Not Active | – | – |
| CN1C(C(=O)Nc2ccccn2)=C(O)c2sccc2S1(=O)=O [TENOXICAM] | Not Active | Not Active | Not Active | Not Active | Not Active | Not Active | Not Active | Not Active | Not Active | Not Active | Not Active | Not Active | Not Active | – | – |
| O=C1CCC(N2C(=O)c3ccccc3C2=O)C(=O)N1 (centres undefined) [THALIDOMIDE] | Not Active | Not Active | Not Active | Not Active | Not Active | Not Active | Not Active | Not Active | Not Active | Not Active | Not Active | Not Active | Not Active | – | – |
| Cc1cccc(Nc2ccncc2S(=O)(=O)NC(=O)NC(C)C)c1 [TORSEMIDE] | Not Active | Not Active | Not Active | Not Active | Not Active | Not Active | Not Active | Not Active | Not Active | Not Active | Not Active | Not Active | Not Active | – | – |
| CC(C)C[C@H](NC(=O)[C@@H](O)[C@H](N)Cc1ccccc1)C(=O)O [UBENIMEX] | Not Active | Not Active | Not Active | Not Active | Not Active | Not Active | Not Active | Not Active | Not Active | Not Active | Not Active | Not Active | Not Active | – | – |
